# Activity calls are given as the source filed them. The rule behind the calls is not given here.
# Key:
# [1] = test system: Heteropogon contortus; test: Nematocidal activity against […] McMaster assessed as inhibition of nematode larval development after 5 days; type: functional
# [2] = test system: Saccharomyces cerevisiae; test: Antifungal activity against Saccharomyces cerevisiae ATCC 9763 at 200 ug/ml after 24 hrs by agar-based microtiter plate assay; type: functional, organism-based
# [3] = test system: Bacillus subtilis; test: Antibacterial activity against Bacillus subtilis ATCC 6633 at 100 ug/ml after 24 hrs by agar-based microtiter plate assay; type: functional, organism-based
# [4] = test system: Bacillus subtilis; test: Antibacterial activity against Bacillus subtilis ATCC 6633 after 24 hrs by agar-based microtiter plate assay; type: functional
# [5] = test system: Saccharomyces cerevisiae; settings: ATCC 9763, 50 ug/ml
# Description: Antifungal activity against Saccharomyces cerevisiae ATCC 9763 at 50 ug/ml after 24 hrs by agar-based microtiter plate assay
# [6] = test system: Bacillus subtilis; settings: ATCC 6633, 50 ug/ml
# Description: Antibacterial activity against Bacillus subtilis ATCC 6633 at 50 ug/ml after 24 hrs by agar-based microtiter plate assay
structure (smiles),measurement,setting,value
CNCCc1c(Br)c(Br)c(Br)c(OC)c1OC [CONVOLUTAMINE H],LD99,[1],0.2 µg/mL
same,LD99,[2],inactive
same,LD99,[3],inactive
COc1c(Br)cc(Br)c2c(CCN(C)C)c(Br)n(OC)c12 [CONVOLUTINDOLE A],LD99,[4],50 µg/mL
same,LD99,[1],0.39 µg/mL
same,LD99,[2],inactive
c1ccc([C@H]2CN3CCSC3=N2)cc1 [LEVAMISOLE],LD99,[5],inactive
same,LD99,[6],inactive
same,LD99,[1],1.6 µg/mL

# Source: ChEMBL document CHEMBL1150604, “Convolutindole A and convolutamine H, new nematocidal brominated alkaloids from the marine bryozoan Amathia convoluta” (2002)
